Key:
CD33 Y127A = target: T1, CD33 Y127A (Homo sapiens, UniProt P20138, Y127A); experiment: SNAP-tag homogeneous time-resolved fluorescence binding assay, CD33 Y127A; settings: Y127A variant, in words
T1 construct: human CD33 ORF (NM_001772.3), lacking its signal peptide; expressed in transfected cells; host or cells: HEK293T, transient, pT8-SNAP vector
Description: (§1) Figure 3 P22 Binding to CD33 Wild-Type and Mutants (A) An example of affinity analysis for 1–243 μM (3-fold dilutions) of P22 binding to immobilized CD33^C36S. Data obtained in duplicate using single-cycle analysis and fit to a steady-state binding model to determine the equilibrium binding constant. (B) An example of affinity analysis of P22 binding to immobilized CD33 wild-type (WT) as per example in (A). (C) Sensorgram data for 0.01–9 μM (3-fold dilutions) of CD33^C36S binding to immobilized P22. Data obtained in triplicate using single concentration cycles and fit to a 1:1 binding model for kinetic analysis. […]
(§2) We then used our structural data to design mutations of key residues interacting with P22 to assess which interactions were the most important for binding affinity. The residues were mutated into alanine, and the effect of these mutations on P22 binding affinity was assessed using a SNAP-tag homogeneous time-resolved fluorescence binding assay (see Transparent Methods and Figures 3E–3G). […]
(§3) HEK293T cells were cultured in DMEM (ThermoFisher Scientific # 11965092) containing 10% FBS (Hyclone # SH30070.03) and 1% Penicillin-Streptomycin (ThermoFisher Scientific # 15140122) and transfected using Fugene HD (Promega # E2312) in 10 cm plates. […] The cells were counted, centrifuged and resuspended in PBS at a concentration of 1,000 cells/μL and 10 μL were plated into each well. […]

CD33 R119A = CD33 R119A (Homo sapiens, UniProt P20138, R119A); experiment: SNAP-tag homogeneous time-resolved fluorescence binding assay, CD33 R119A; parameters: human CD33 ORF (NM_001772.3), lacking its signal peptide; expressed in transfected cells; host or cells: HEK293T, transient, pT8-SNAP vector; settings: binding affinity, R119A vs WT
Description: as §1, §2, §3

CD33 R119A, sequence (P20138 18-364 R119A): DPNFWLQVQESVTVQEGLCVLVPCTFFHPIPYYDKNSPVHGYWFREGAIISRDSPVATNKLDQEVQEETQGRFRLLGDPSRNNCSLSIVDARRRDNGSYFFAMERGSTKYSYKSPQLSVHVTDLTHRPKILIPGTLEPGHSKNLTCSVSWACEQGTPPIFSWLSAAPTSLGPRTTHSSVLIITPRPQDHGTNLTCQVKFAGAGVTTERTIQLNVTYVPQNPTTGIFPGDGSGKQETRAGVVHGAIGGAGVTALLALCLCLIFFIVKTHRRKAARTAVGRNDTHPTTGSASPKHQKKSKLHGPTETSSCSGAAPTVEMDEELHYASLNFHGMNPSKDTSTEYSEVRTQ
T1 sequence (P20138 18-364 Y127A): as the sequence (P20138 18-364 R119A) above, with A102R, Y110A counted along it

Cc1cc(C(=O)NC[C@@H](O)[C@@H](O)[C@@H]2O[C@@](OC[C@H]3O[C@@H](O[C@H]4[C@H](O)[C@@H](O)[C@H](OCCN)O[C@@H]4CO)[C@H](O)[C@@H](O)[C@H]3O)(C(=O)O)C[C@H](O)[C@H]2NC(=O)Cn2cc(C3CCCCC3)nn2)cc(C)c1O [P22, β-D-Glucopyranoside, 2-aminoethyl O-[N-[2-(4-cyclohexyl-1H-1,2,3-triazol-1-yl)acetyl]-9-deoxy-9-[(4-hydroxy-3,5-dimethylbenzoyl)amino]-α-neuraminosyl] (2→6)-O-β-D-galactopyranosyl-(1→4)-]
specific binding (total binding – binding in presence of 100 μM non-labeled P22) (CD33 Y127A): completely abolished | Fold-decrease compared to WT (CD33 R119A): > 30 fold
